The source of these data is ChEMBL document CHEMBL1811875, “Inverse virtual screening of antitumor targets: pilot study on a small database of natural bioactive compounds” (J Nat Prod, 2011).

For orientation: IC50 means the point on the concentration scale where inhibition reaches its midpoint. Broadly, the Kd is the concentration at which binding is half-saturated. Low values mean higher affinity, high ones lower affinity.

Molecules are shown by their SMILES.

For one experiment, the system named is NCI-H460. The experiment in a line: Cytotoxicity against human H460 cells assessed as stimulation of topoisomerase 1-mediated DNA cleavage. Format: functional, cell-based.
A further experiment concerns the target T1, DNA topoisomerase 1 (Homo sapiens, UniProt P11387).
T1 sequence (P11387 whole entry): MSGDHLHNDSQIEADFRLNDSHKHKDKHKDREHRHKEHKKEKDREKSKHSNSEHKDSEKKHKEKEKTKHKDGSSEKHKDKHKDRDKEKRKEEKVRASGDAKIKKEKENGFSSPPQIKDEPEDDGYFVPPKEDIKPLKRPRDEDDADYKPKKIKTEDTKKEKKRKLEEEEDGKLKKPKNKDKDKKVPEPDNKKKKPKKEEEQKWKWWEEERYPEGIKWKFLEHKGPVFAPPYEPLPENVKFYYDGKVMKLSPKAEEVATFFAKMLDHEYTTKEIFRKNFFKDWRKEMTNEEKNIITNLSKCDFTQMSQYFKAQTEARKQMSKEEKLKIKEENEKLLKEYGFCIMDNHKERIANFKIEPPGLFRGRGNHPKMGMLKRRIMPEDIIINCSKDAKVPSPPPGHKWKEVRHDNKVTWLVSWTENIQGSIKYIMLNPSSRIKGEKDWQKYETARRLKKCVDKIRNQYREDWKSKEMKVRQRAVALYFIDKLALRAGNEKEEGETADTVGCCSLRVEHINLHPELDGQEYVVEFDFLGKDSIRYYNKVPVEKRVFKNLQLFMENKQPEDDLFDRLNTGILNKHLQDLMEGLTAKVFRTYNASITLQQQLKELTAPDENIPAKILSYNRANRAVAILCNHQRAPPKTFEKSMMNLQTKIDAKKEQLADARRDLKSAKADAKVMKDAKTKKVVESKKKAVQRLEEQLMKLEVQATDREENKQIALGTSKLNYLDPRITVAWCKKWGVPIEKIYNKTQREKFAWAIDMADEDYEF
The experiment in a line: Binding affinity to topoisomerase 1.

A further experiment concerns the target Wee1-like protein kinase (Homo sapiens, UniProt P30291). As to the kind of experiment: Binding affinity to weel kinase.

Wee1-like protein kinase, sequence (P30291 whole entry): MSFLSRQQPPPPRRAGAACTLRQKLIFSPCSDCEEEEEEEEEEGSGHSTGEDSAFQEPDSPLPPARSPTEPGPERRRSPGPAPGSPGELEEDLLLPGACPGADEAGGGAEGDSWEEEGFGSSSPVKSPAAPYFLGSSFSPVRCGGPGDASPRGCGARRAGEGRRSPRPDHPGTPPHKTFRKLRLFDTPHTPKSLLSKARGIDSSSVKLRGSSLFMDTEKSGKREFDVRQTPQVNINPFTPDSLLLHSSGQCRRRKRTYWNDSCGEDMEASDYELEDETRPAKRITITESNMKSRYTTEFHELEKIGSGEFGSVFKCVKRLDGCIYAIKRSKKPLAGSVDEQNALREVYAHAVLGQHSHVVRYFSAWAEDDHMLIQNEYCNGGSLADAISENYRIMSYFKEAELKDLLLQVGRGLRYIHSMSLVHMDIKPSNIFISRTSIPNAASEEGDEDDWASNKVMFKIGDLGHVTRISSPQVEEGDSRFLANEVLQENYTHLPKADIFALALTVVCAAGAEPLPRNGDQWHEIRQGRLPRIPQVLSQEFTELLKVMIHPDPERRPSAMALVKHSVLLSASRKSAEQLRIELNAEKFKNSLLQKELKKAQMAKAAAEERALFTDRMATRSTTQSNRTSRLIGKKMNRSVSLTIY

Regarding `CC[C@@]1(O)C(=O)OCc2c1cc1n(c2=O)Cc2c-1nc1ccccc1c2/C=N/c1ccccc1C`, the IC50 in the experiment on NCI-H460 was determined as 400 nM. This molecule also came in with a Kd at DNA topoisomerase 1 of 0.296 nM.

Take `CC[C@@]1(O)C(=O)OCc2c1cc1n(c2=O)Cc2cc3c(CN(C)C)c(O)ccc3nc2-1` [TOPOTECAN]: in the experiment with NCI-H460, the half-maximal inhibitory concentration (IC50) turned out to be 1380 nM.

Take `CC[C@@]1(O)C(=O)OCc2c1cc1n(c2=O)Cc2c-1nc1ccccc1c2/C=N\OCCCO`: in the experiment on NCI-H460, the 50% inhibitory concentration (IC50) was 400 nM. On DNA topoisomerase 1, this molecule gave an equilibrium dissociation constant (Kd) of 2.65 nM.

`Cc1cc(=O)c2c(O)cc3c(c2o1)C(=O)c1c(O)cc(O)cc1C3=O` [TOPOPYRONE C] came in with a Kd on Wee1-like protein kinase of 1.35 nM.
